Source: US7910597B2, “Substituted quinazolines” (Shire LLC, priority 2006, dated 2011)
Structures can show the parent of a compound that is named as a salt. Where two headings read alike, the source gives them in different places. One block for each molecule: values may come before it.

Key:
[1] = target: human phosphodiesterase III (PDE III); assay: In vitro PDE III inhibition (human enzyme); type: biochemical
[2] = test system: megakaryocytopoiesis (human cell-line); assay: In vitro anti-megakaryocytic activity in a model of megakaryocytopoiesis (human cell-line); type: cell-based
Method: Assessment of the in vitro anti-megakaryocytic activity—and potentially therefore the platelet lowering capability—of the 3-substituted analogues of anagrelide was conducted using a well established model of megakaryocytopoiesis (Cohen-Solal et at, Thromb. Haemost. 1997, 78:37-41 and Cramer et al, Blood, 1997, 89:2336-46). It can be readily seen that with anagrelide the benefit ratio (therapeutic to adverse effects) was comparatively low at 0.024:1 (after accounting for the predominant exposure to the cardioactive metabolite in vivo).

[3] = test system: dog heart rate; assay: In vivo cardiovascular effects on dog heart rate
From the text: (§1) A comparison of the in vivo cardiovascular effects of anagrelide, its active metabolite and a representative example of an improved analogue shown in the table below:—

[4] = Pharmacokinetics in the conscious dog model; type: in vivo; conditions: geometric mean ± % CV
Method: A comparison of the pharmacokinetic profile in the dog of anagrelide and a representative 3-substituted analogue is shown below:—
Comparative Pharmacokinetics of Anagrelide, its Resultant Active Metabolite and a Representative 3-Substituted Analogue Follow 1 mg/kg iv in the Conscious Dog Model

[5] = In vitro metabolic stability in dog hepatocytes; type: in vitro ADME
From the text: (§2) This comparatively longer half-life for 3,3 dimethyl anagrelide observed in the dog was mirrored in an in vitro metabolic stability study in which it was clearly much more metabolically stable than anagrelide (see table below). Hepatic metabolism is known to be the principal mechanism of clearance of anagrelide in both animals and in man.

[6] = In vitro metabolic stability in human hepatocytes; type: in vitro ADME
From the text: as §2

[7] = Solubility in test media, saturated solutions, HPLC; type: physicochemical; conditions: ca. 20° C.; for solubility at 20 min: thermodynamic from solid
Method: Solubility studies were carried out on a number of anagrelide derivatives according to the present invention in various test media. The test media were; • a) singly distilled water (pH 5.0)—note no attempt was made to remove dissolved CO2. • b) 50 mM ammonium formate (pH 7.9) • c) 0.1 M hydrochloric acid (pH 0.6)
Calibration plots of HPLC peak area vs. concentration were obtained in MeOH or MeOH/DMSO over the range 1000-1 μg/ml for each substance at a temperature 20-22° C. The HPLC method used a reverse phase C18 column with a water (0.6% formic acid) and acetonitrile gradient. For the solubility studies, saturated solutions were prepared by dissolving in the desired medium with the aid of an ultrasonic bath for 20 minutes and the excess solid removed by centrifugation. The concentration of the substance in the supernatant liquid was determined from the measured peak area.

[8] = test system: human phosphodiesterase III (PDE III); conditions: background, cited from earlier work; for IC50: read-out: IC50 as PDE III inhibitor
[9] = test system: megakaryocytopoiesis (human cell-line); conditions: background; cited from earlier work
[10] = cited from earlier work
[11] = test system: heart rate; assay: In vivo cardiovascular effects on dog heart rate; conditions: in vivo
From the text: as §1

[12] = test system: erythroid or myelomonocytic differentiation; conditions: stimulated by erythropoietin or granulocyte-macrophage colony-stimulating factor; cited from earlier work
[13] = Example 1 table, read-out: IC50 for PDE III inhibition (cardiovascular effects)
[14] = read-out: In vitro IC50 for PDE III inhibition (human enzyme)
[15] = Example 1 table, read-out: IC50 for anti-megakaryocytic (platelet lowering) activity
[16] = read-out: In vitro IC50 for anti-megakaryocytic effects (human cell-line)

Structure (SMILES): CC1(C)C(=O)NC2=Nc3ccc(Cl)c(Cl)c3CN21 [3,3 dimethyl anagrelide, 3,3-dimethylanagrelide]
- IC50 [1, 13]: 166 nM
- IC50 [1, 14]: 164 nM
- IC50 [2, 15]: 164 nM
- IC50 [2, 16]: 166 nM
- In vivo ED20 for effects on dog heart rate [3]: 2,512 μg/kg
- In vivo ED50 for effects on dog heart rate [3]: 3,557 ug/kg μg/kg
- AUC(0-t) ([4]; 1 mg/kg): 1903 ± 47 ng·h/mL
- Cmax ([4]; 1 mg/kg): 167 ± 33 ng/mL
- T1/2 ([4]; 1 mg/kg): 9.39 h
- CL ([4]; after 1 mg/kg iv): 2.97 ± 0.765 mL/min/kg
- Vss ([4]; after 1 mg/kg iv): 1.967 ± 0.024 L/kg
- In vitro "half-life" in dog hepatocytes [5]: No apparent degradation
- In vitro "half-life" in human hepatocytes [6]: 22.8 h

Structure (SMILES): O=C1[N-]C2=Nc3ccc(Cl)c(Cl)c3CN2C12CC2.[Na+] [3,3,Spiro-Cyclopropyl-anagrelide sodium salt]
- Solubility in hydrochloric acid (0.1M, pH 0.6) ([7]; 0.1M HCl, pH 0.6): 28 μg mL^−1
- Solubility in ammonium formate (50 mM, pH 7.9) ([7]; ammonium formate 50 mM, pH 7.9): 1 μg mL^−1
- Solubility in water (pH 5.0) ([7]; singly distilled water, pH 5.0): 542 μg mL^−1

Structure (SMILES): Br.CC1(C)C(=O)NC2=Nc3ccc(Cl)c(Cl)c3CN21 [3,3-Dimethylanagrelide hydrobromide]
- Solubility in hydrochloric acid (0.1M, pH 0.6) ([7]; 0.1M HCl, pH 0.6): 215 μg mL^−1
- Solubility in ammonium formate (50 mM, pH 7.9) ([7]; ammonium formate 50 mM, pH 7.9): 4 μg mL^−1
- Solubility in water (pH 5.0) ([7]; singly distilled water, pH 5.0): 20 μg mL^−1

Structure (SMILES): CC1(C)C(=O)[N-]C2=Nc3ccc(Cl)c(Cl)c3CN21.[Na+] [3,3-Dimethylanagrelide sodium salt]
- Solubility in hydrochloric acid (0.1M, pH 0.6) ([7]; 0.1M HCl, pH 0.6): 212 μg mL^−1
- Solubility in ammonium formate (50 mM, pH 7.9) ([7]; ammonium formate 50 mM, pH 7.9): 6 μg mL^−1
- Solubility in water (pH 5.0) ([7]; singly distilled water, pH 5.0): 409 μg mL^−1

Structure (SMILES): Br.O=C1NC2=Nc3ccc(Cl)c(Cl)c3CN2C12CC2 [3,3-spiro-Cyclopropyl-anagrelide hydrobromide]
- Solubility in hydrochloric acid (0.1M, pH 0.6) ([7]; 0.1M HCl, pH 0.6): 35 μg mL^−1
- Solubility in ammonium formate (50 mM, pH 7.9) ([7]; ammonium formate 50 mM, pH 7.9): 1 μg mL^−1
- Solubility in water (pH 5.0) ([7]; singly distilled water, pH 5.0): 2 μg mL^−1

Structure (SMILES): C[C@@H]1C(=O)NC2=Nc3ccc(Cl)c(Cl)c3CN21 [(R)-3-methyl anagrelide]
- PDE III inhibitory activity (in words) [1]: significantly reduced PDE III inhibition relative to 3-OH anagrelide
- Anti-megakaryocytic activity (in words) [2]: good anti-megakaryocytic activity

Structure (SMILES): C[C@H]1C(=O)NC2=Nc3ccc(Cl)c(Cl)c3CN21 [(S)-3-methyl anagrelide]
- PDE III inhibitory activity (in words) [1]: significantly reduced PDE III inhibition relative to 3-OH anagrelide
- Anti-megakaryocytic activity (in words) [2]: good anti-megakaryocytic activity

Structure (SMILES): Cc1[nH]c(=O)c(C#N)cc1-c1ccncc1 [milrinone]
- IC50 [8]: 170 to 350 nM

The next lines start with results.

- Solubility in hydrochloric acid (0.1M, pH 0.6) ([7]; 0.1M HCl, pH 0.6): 189 μg mL^−1
- Solubility in ammonium formate (50 mM, pH 7.9) ([7]; ammonium formate 50 mM, pH 7.9): 39 μg mL^−1
- Solubility in water (pH 5.0) ([7]; singly distilled water, pH 5.0): 1830 μg mL^−1
Structure (SMILES): C=c1c(=O)[n-]c2n1Cc1c(ccc(Cl)c1Cl)N=2.[Na+] [3-Methyleneanagrelide Na salt]

- Solubility in hydrochloric acid (0.1M, pH 0.6) ([7]; 0.1M HCl, pH 0.6): 43 μg mL^−1
- Solubility in ammonium formate (50 mM, pH 7.9) ([7]; ammonium formate 50 mM, pH 7.9): 5 μg mL^−1
- Solubility in water (pH 5.0) ([7]; singly distilled water, pH 5.0): 9 μg mL^−1
Structure (SMILES): C=c1c(=O)[nH]c2n1Cc1c(ccc(Cl)c1Cl)N=2 [3-Methyleneanagrelide, 3-methyleneanagrelide]

- IC50 [1, 14]: 0.7 nM
- IC50 [2, 15]: 44 nM
- IC50 [2, 16]: 44 nM
- AUC(0-t) ([4]; 1 mg/kg): 179 ± 14 ng·h/mL
- Cmax ([4]; 1 mg/kg): 60.1 ± 14 ng/mL
- T1/2 ([4]; 1 mg/kg): 1.57 ± 24 h
Structure (SMILES): O=C1NC2=Nc3ccc(Cl)c(Cl)c3CN2C1O (stereo not shown) [3-hydroxy anagrelide, 3-hydroxyanagrelide]
- IC50 [1, 13]: 0.7 nM
- In vivo ED20 for effects on dog heart rate [3]: 7.1 µg/kg
- In vivo ED50 for effects on dog heart rate [3]: 11.72 ug/kg μg/kg
- Potency as PDE III inhibitor relative to anagrelide ([8]; more potent than anagrelide): over 40 fold
- Inhibition of megakaryocytopoiesis relative to parent drug (in words) [9]: no more potent than the parent drug
- In vivo exposure relative to parent drug ([10]; after anagrelide treatment): 2-3 fold
- Typical half-life ([10]; background, patients): 2.5 h

- IC50 [2, 15]: 547 nM
Structure (SMILES): O=C1NC2=Nc3ccc(Cl)c(Cl)c3CN2C12CC2 [3-spirocyclo propyl anagrelide, 3,3,spiro-cyclopropyl-anagrelide]
- IC50 [1, 13]: 797 nM

- solubility at 20 min ([7]; 50 mM ammonium formate, aqueous buffer, ammonium formate 50 mM, pH 7.9, read-out: Solubility in ammonium formate (50 mM, pH 7.9)): 10 µg/mL
- solubility at 20 min ([7]; 0.1 M hydrochloric acid, simulated gastric fluid, 0.1M HCl, pH 0.6, read-out: Solubility in hydrochloric acid (0.1M, pH 0.6)): 169 µg/mL
- solubility at 20 min ([7]; singly distilled water, pH 5.0, read-out: Solubility in water (pH 5.0)): 11 µg/mL
Structure (SMILES): O=C1CN2Cc3c(ccc(Cl)c3Cl)N=C2N1 [Anagrelide hydrochloride, 6,7-dichloro-1,5-dihydroimidazo[2,1-b]-quinazolin-2(3H)-one hydrochloride monohydrate, reference compound]

- IC50 [1, 14]: 29 nM
- IC50 ([2]; Homo sapiens, Platelet, Example 1 table, read-out: IC50 for anti-megakaryocytic (platelet lowering) activity): 27 nM
- IC50 ([2]; Homo sapiens, read-out: In vitro IC50 for anti-megakaryocytic effects (human cell-line)): 26 nM
- clearance ([4]; in vivo, after 1 mg/kg iv): 19.3 mL/min/kg
- Vd ([4]; in vivo, after 1 mg/kg iv, read-out: Vss): 1.011 ± 0.0038 L/kg
- half-life ([4]; in vivo, intravenous, 1 mg/kg): 1.37 h
- AUC(0-t) ([4]; in vivo, intravenous, 1 mg/kg, read-out: AUC(0-t)): 101 ± 15 ng·h/mL
- Cmax ([4]; in vivo, intravenous, 1 mg/kg, read-out: Cmax): 48.1 ± 21 ng/mL
- half-life [5]: 1.25 h
- half-life [6]: 6.62 h
Structure (SMILES): O=C1CN2Cc3c(ccc(Cl)c3Cl)N=C2N1 [Anagrelide, 6,7-dichloro-1,5-dihydroimidazo[2,1-b]-quinazolin-2(3H)-one hydrochloride monohydrate]
- IC50 [1, 13]: 32 nM
- In vivo ED20 for effects on dog heart rate [3]: 376 µg/kg
- ED50 [11]: 0.986 mg/kg
- IC50 [8]: ~29 nM
- First pass effect ([10]; background): > 50%
- Effect on erythroid or myelomonocytic differentiation (in words) [12]: does not affect erythroid or myelomonocytic differentiation
